Data from PubChem BioAssay AID272 (DTP/NCI, 2004).
Where “and” joins values, the source holds several entries; their conditions need not be identical. Identical values can stand only once. Records with an inconclusive call do not appear.

System: Lewis lung carcinoma i.m., BDF1 mice, T/C %
Test: NCI In Vivo Anticancer Drug Screen. Data for tumor model Lewis Lung Carcinoma (intramuscular) in B6D2F1 (BDF1) mice
How it was run: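 Transplantable tumour model; readout survival or tumour size; value = treated (T) / vehicle control (C).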

SMILES: COc1cc([C@@H]2c3cc4c(cc3[C@H](O)[C@H]3COC(=O)[C@H]23)OCO4)cc(OC)c1OC
- T/C (endpoint: mean tumor weight, dose: 0.25 mg/kg/injection, schedule: Q01DX011 (ip), vehicle: Klucel (hydroxypropylcellulose) (HPC), higher = larger tumour): 100 % of control
- T/C (endpoint: mean tumor weight, dose: 0.5 mg/kg/injection, schedule: Q01DX011 (ip), vehicle: Klucel (hydroxypropylcellulose) (HPC), higher = larger tumour): 77 % of control
- T/C (endpoint: mean tumor weight, dose: 1.0 mg/kg/injection, schedule: Q01DX011 (ip), vehicle: Klucel (hydroxypropylcellulose) (HPC), higher = larger tumour): 105 % of control
- T/C (endpoint: median survival time, dose: 0.13 mg/kg/injection, schedule: Q01DX011 (ip), vehicle: Klucel (hydroxypropylcellulose) (HPC), higher = longer survival): 87 % of control
- T/C (endpoint: median survival time, dose: 0.25 mg/kg/injection, schedule: Q01DX011 (ip), vehicle: Klucel (hydroxypropylcellulose) (HPC), higher = longer survival): 107 % of control
- T/C (endpoint: median survival time, dose: 0.5 mg/kg/injection, schedule: Q01DX011 (ip), vehicle: Klucel (hydroxypropylcellulose) (HPC), higher = longer survival): 114 % of control

SMILES: FC(F)c1nc2nc(Cl)c(Cl)nc2[nH]1
- T/C (endpoint: median survival time, dose: 4.0 mg/kg/injection, schedule: Q01DX011 (ip), vehicle: saline, higher = longer survival): 92 % of control
- T/C (endpoint: median survival time, dose: 64.0 mg/kg/injection, schedule: Q01DX011 (ip), vehicle: saline, higher = longer survival): 96 % of control

SMILES: COc1cc(C[C@H]2c3cc(OC)c(OC)cc3CCN2C)c(Oc2cc3c(cc2OC)-c2c(OC)c(OC)cc4c2[C@H](C3)N(C)CC4)cc1OC
- T/C (endpoint: mean tumor weight, dose: 12.5 mg/kg/injection, schedule: Q01DX011 (ip), vehicle: other, higher = larger tumour): 104 % of control
- T/C (endpoint: mean tumor weight, dose: 25.0 mg/kg/injection, schedule: Q01DX011 (ip), vehicle: other, higher = larger tumour): 100 % of control
- T/C (endpoint: mean tumor weight, dose: 50.0 mg/kg/injection, schedule: Q01DX011 (ip), vehicle: other, higher = larger tumour): 93 % of control
- T/C (endpoint: median survival time, dose: 12.5 mg/kg/injection, schedule: Q01DX011 (ip), vehicle: other, higher = longer survival): 105 % of control
- T/C (endpoint: median survival time, dose: 25.0 mg/kg/injection, schedule: Q01DX011 (ip), vehicle: other, higher = longer survival): 108 % of control
- T/C (endpoint: median survival time, dose: 50.0 mg/kg/injection, schedule: Q01DX011 (ip), vehicle: other, higher = longer survival): 117 % of control

SMILES: O=C(CCl)Nc1ccc(C(=O)O)cc1
- T/C (endpoint: median survival time, dose: 3.75 mg/kg/injection, schedule: Q01DX011 (ip), vehicle: saline with Tween-80, higher = longer survival): 106 % of control
- T/C (endpoint: median survival time, dose: 7.5 mg/kg/injection, schedule: Q01DX011 (ip), vehicle: saline with Tween-80, higher = longer survival): 97 % of control
- T/C (endpoint: median survival time, dose: 15.0 mg/kg/injection, schedule: Q01DX011 (ip), vehicle: saline with Tween-80, higher = longer survival): 100 % of control

SMILES: CC(=O)C(O)N1C(=O)C=CC1=O (centres undefined)
- T/C (endpoint: median survival time, dose: 0.62 mg/kg/injection, schedule: Q01DX011 (ip), vehicle: water, higher = longer survival): 88 % of control
- T/C (endpoint: median survival time, dose: 1.25 mg/kg/injection, schedule: Q#A X022 (ip), vehicle: water, higher = longer survival): 120 % of control
- T/C (endpoint: median survival time, dose: 2.5 mg/kg/injection, schedule: Q01DX011 (ip), vehicle: water, higher = longer survival): 123 % of control
- T/C (endpoint: median survival time, dose: 2.5 mg/kg/injection, schedule: Q#A X022 (ip), vehicle: water, higher = longer survival): 120 % of control
- T/C (endpoint: median survival time, dose: 5.0 mg/kg/injection, schedule: Q#A X022 (ip), vehicle: water, higher = longer survival): 113 % of control

SMILES: CC1=C2C(=CC(C)(C)[C@@H]2O)C(=O)[C@](C)(O)C12CC2
- T/C (endpoint: mean tumor weight, dose: 0.1 mg/kg/injection, schedule: Q01DX011 (ip), vehicle: other, higher = larger tumour): 95 % of control
- T/C (endpoint: mean tumor weight, dose: 0.2 mg/kg/injection, schedule: Q01DX011 (ip), vehicle: other, higher = larger tumour): 84 % of control
- T/C (endpoint: mean tumor weight, dose: 0.4 mg/kg/injection, schedule: Q01DX011 (ip), vehicle: other, higher = larger tumour): 21 % of control

SMILES: CC(=O)O[C@]1(C(C)=O)CC[C@H]2[C@@H]3C[C@H](C)C4=CC(=O)CC[C@]4(C)[C@H]3CC[C@@]21C
- T/C (endpoint: median survival time, dose: 50.0 mg/kg/injection, schedule: Q01DX009 (ip), vehicle: Klucel (hydroxypropylcellulose) (HPC), higher = longer survival): 90 % of control
- T/C (endpoint: median survival time, dose: 50.0 mg/kg/injection, schedule: Q01DX011 (ip), vehicle: Klucel (hydroxypropylcellulose) (HPC), higher = longer survival): 104 % of control and 109 % of control
- T/C (endpoint: median survival time, dose: 100.0 mg/kg/injection, schedule: Q01DX009 (ip), vehicle: Klucel (hydroxypropylcellulose) (HPC), higher = longer survival): 107 % of control
- T/C (endpoint: median survival time, dose: 100.0 mg/kg/injection, schedule: Q01DX011 (ip), vehicle: Klucel (hydroxypropylcellulose) (HPC), higher = longer survival): 104 % of control
- T/C (endpoint: median survival time, dose: 200.0 mg/kg/injection, schedule: Q01DX009 (ip), vehicle: Klucel (hydroxypropylcellulose) (HPC), higher = longer survival): 110 % of control
- T/C (endpoint: median survival time, dose: 200.0 mg/kg/injection, schedule: Q01DX011 (ip), vehicle: Klucel (hydroxypropylcellulose) (HPC), higher = longer survival): 107 % of control and 119 % of control
- T/C (endpoint: median survival time, dose: 400.0 mg/kg/injection, schedule: Q01DX009 (ip), vehicle: Klucel (hydroxypropylcellulose) (HPC), higher = longer survival): 114 % of control
- T/C (endpoint: median survival time, dose: 400.0 mg/kg/injection, schedule: Q01DX011 (ip), vehicle: Klucel (hydroxypropylcellulose) (HPC), higher = longer survival): 109 % of control and 123 % of control
- T/C (endpoint: median survival time, dose: 800.0 mg/kg/injection, schedule: Q01DX009 (ip), vehicle: Klucel (hydroxypropylcellulose) (HPC), higher = longer survival): 90 % of control

SMILES: O=c1[nH]c2cc(Cl)ccc2c(CCl)c1Cl
- T/C (endpoint: mean tumor weight, dose: 25.0 mg/kg/injection, schedule: Q01DX011 (ip), vehicle: saline, higher = larger tumour): 112 % of control
- T/C (endpoint: mean tumor weight, dose: 50.0 mg/kg/injection, schedule: Q01DX011 (ip), vehicle: saline, higher = larger tumour): 101 % of control
- T/C (endpoint: mean tumor weight, dose: 100.0 mg/kg/injection, schedule: Q01DX011 (ip), vehicle: saline, higher = larger tumour): 115 % of control
- T/C (endpoint: median survival time, dose: 25.0 mg/kg/injection, schedule: Q01DX011 (ip), vehicle: saline, higher = longer survival): 95 % of control
- T/C (endpoint: median survival time, dose: 50.0 mg/kg/injection, schedule: Q01DX011 (ip), vehicle: saline, higher = longer survival): 102 % of control
- T/C (endpoint: median survival time, dose: 100.0 mg/kg/injection, schedule: Q01DX011 (ip), vehicle: saline, higher = longer survival): 89 % of control

SMILES: Nc1ncnc2c1ccn2C1OC(CO)C(O)C1O (centres undefined)
- T/C (endpoint: median survival time, dose: 0.1 mg/kg/injection, schedule: Q01DX011 (ip), vehicle: steriod suspending solution, higher = longer survival): 90 % of control
- T/C (endpoint: median survival time, dose: 0.19 mg/kg/injection, schedule: Q01DX011 (ip), vehicle: steriod suspending solution, higher = longer survival): 101 % of control
- T/C (endpoint: median survival time, dose: 0.25 mg/kg/injection, schedule: Q01DX011 (ip), vehicle: carboxymethylcellulose (CMC), higher = longer survival): 106 % of control
- T/C (endpoint: median survival time, dose: 0.38 mg/kg/injection, schedule: Q01DX011 (ip), vehicle: steriod suspending solution, higher = longer survival): 92 % of control
- T/C (endpoint: median survival time, dose: 0.5 mg/kg/injection, schedule: Q01DX009 (ip), vehicle: Klucel (hydroxypropylcellulose) (HPC), higher = longer survival): 98 % of control
- T/C (endpoint: median survival time, dose: 0.5 mg/kg/injection, schedule: Q01DX011 (ip), vehicle: carboxymethylcellulose (CMC), higher = longer survival): 100 % of control
- T/C (endpoint: median survival time, dose: 0.75 mg/kg/injection, schedule: Q01DX011 (ip), vehicle: steriod suspending solution, higher = longer survival): 86 % of control
- T/C (endpoint: median tumor weight (est.), dose: 0.1 mg/kg/injection, schedule: Q01DX011 (ip), vehicle: steriod suspending solution, higher = larger tumour): 70 % of control
- T/C (endpoint: median tumor weight (est.), dose: 0.19 mg/kg/injection, schedule: Q01DX011 (ip), vehicle: steriod suspending solution, higher = larger tumour): 96 % of control
- T/C (endpoint: median tumor weight (est.), dose: 0.38 mg/kg/injection, schedule: Q01DX011 (ip), vehicle: steriod suspending solution, higher = larger tumour): 70 % of control
- T/C (endpoint: median tumor weight (est.), dose: 0.75 mg/kg/injection, schedule: Q01DX011 (ip), vehicle: steriod suspending solution, higher = larger tumour): 84 % of control

SMILES: S=c1nc[nH]c2nc[nH]c12
- T/C (endpoint: mean tumor weight, dose: 10.0 mg/kg/injection, schedule: Q01DX011 (ip), vehicle: other, higher = larger tumour): 77 % of control
- T/C (endpoint: mean tumor weight, dose: 20.0 mg/kg/injection, schedule: Q01DX011 (ip), vehicle: other, higher = larger tumour): 77 % of control
- T/C (endpoint: mean tumor weight, dose: 40.0 mg/kg/injection, schedule: Q01DX011 (ip), vehicle: other, higher = larger tumour): 89 % of control
- T/C (endpoint: mean tumor weight, dose: 65.0 mg/kg/injection, schedule: Q01DX011 (ip), vehicle: other, higher = larger tumour): 58 % of control
- T/C (endpoint: median survival time, dose: 4.0 mg/kg/injection, schedule: Q01DX011 (ip), vehicle: other, higher = longer survival): 91 % of control and 108 % of control
- T/C (endpoint: median survival time, dose: 8.0 mg/kg/injection, schedule: Q01DX011 (ip), vehicle: other, higher = longer survival): 91 % of control and 111 % of control
- T/C (endpoint: median survival time, dose: 10.0 mg/kg/injection, schedule: Q01DX011 (ip), vehicle: other, higher = longer survival): 110 % of control
- T/C (endpoint: median survival time, dose: 16.0 mg/kg/injection, schedule: Q01DX011 (ip), vehicle: other, higher = longer survival): 93 % of control
- T/C (endpoint: median survival time, dose: 20.0 mg/kg/injection, schedule: Q01DX011 (ip), vehicle: other, higher = longer survival): 112 % of control
- T/C (endpoint: median survival time, dose: 32.0 mg/kg/injection, schedule: Q01DX011 (ip), vehicle: other, higher = longer survival): 98 % of control

SMILES: N[C@H](C(=O)O)[C@@H]1CC(Cl)=NO1
- T/C (endpoint: median survival time, dose: 1.0 mg/kg/injection, schedule: Q01DX013 (ip), vehicle: saline, higher = longer survival): 101 % of control
- T/C (endpoint: median survival time, dose: 2.0 mg/kg/injection, schedule: Q01DX013 (ip), vehicle: saline, higher = longer survival): 100 % of control

SMILES: O=c1n(CC2CO2)c(=O)n(CC2CO2)c(=O)n1CC1CO1 (centres undefined)
- T/C (endpoint: median survival time, dose: 20.0 mg/kg/injection, schedule: Q01DX011 (ip), vehicle: saline, higher = longer survival): 115 % of control
- T/C (endpoint: median survival time, dose: 30.0 mg/kg/injection, schedule: Q01DX011 (ip), vehicle: saline, higher = longer survival): 120 % of control and 122 % of control
- T/C (endpoint: median survival time, dose: 40.0 mg/kg/injection, schedule: Q01DX011 (ip), vehicle: saline, higher = longer survival): 117 % of control and 124 % of control
- T/C (endpoint: median survival time, dose: 70.0 mg/kg/injection, schedule: Q01DX011 (ip), vehicle: saline, higher = longer survival): 114 % of control
- T/C (endpoint: median survival time, dose: 80.0 mg/kg/injection, schedule: Q01DX011 (ip), vehicle: saline, higher = longer survival): 90 % of control
- T/C (endpoint: median survival time, dose: 90.0 mg/kg/injection, schedule: Q01DX011 (ip), vehicle: saline, higher = longer survival): 115 % of control
